# Test results: patent US12589099B2 (priority 2021, dated 2026)
# Assays:
# Type in all cases: in vivo, male Wistar rats
# [1] = Body weight over the 35-day TBI study (overt toxicity); details: 4.5 mg/kg IN twice daily
# Source text: (§1) Young adult (2-3 months) male Wistar rats were subjected to a moderate traumatic brain injury (TBI) induced by controlled cortical impact (CCI). Animal models of TBI including the CCI model and functional tests have been described in detail in peer reviewed publications (Xiong et al., 2013, Nat Rev Neurosci.; Zhang et al., 2016, J Neurosurg.; Zhang et al., 2016, Neurochem Int.; Zhang et al., 2021, J Neurotrauma). Injury consisted of a single impact at 4.0 m/sec, 2.5 mm deformation to the left parietal cortex. In addition, a group of animals was left healthy/not injured to serve as a healthy control.
# The animals were divided into 3 groups: • 1) TBI+Vehicle (purified water, n=10) • 2) TBI+ALPHA-1062 (4.5 mg/kg) (n=10) • 3) Healthy/not injured and not treated (Sham surgery) (n=10)
# The substance used in this study was ALPHA-1062 at 4.5 mg/kg. As control treatment (vehicle) purified water was administered intranasally (IN). The ALPHA-1062 and the control treatment were initiated 2 hours after injury and continued twice daily (with a 6-hour interval) for 35 consecutive days.
# [2] = system: NeuN and BrdU double positive granule neurons in the dentate gyrus; assay: NeuN/BrdU double label, newborn neurons in the dentate gyrus 35 days post-TBI; details: 4.5 mg/kg IN twice daily, 35 days following TBI
# Source text: as §1
# The substance used in this study was ALPHA-1062 at 4.5 mg/kg. As control treatment (vehicle) purified water was administered intranasally (IN). The ALPHA-1062 and the control treatment were initiated 2 hours after injury and continued twice daily (with a 6-hour interval) for 35 consecutive days. […]
# (§2) Histological assessment was performed including quantitative image analysis protocols; followed by statistical analysis of the data. […]
# For cell counting and quantitation NeuN+ cells were examined in the ipsilateral cortex, DG, CA1, and CA3 regions of the ipsilateral hippocampus. […] The number of BrdU+ cells (red-fluorophore) and NeuN (green-fluorophore)/BrdU-colabeled cells (yellow after merge) were counted. […]
# [3] = system: pathological p-Tau (AT8); assay: p-Tau (AT8) immunostaining 35 days post-TBI; details: 4.5 mg/kg IN twice daily, cortex, DG, CA3, CA1 of ipsilateral hemisphere
# Source text: as §1
# (§3) The substance used in this study was ALPHA-1062 at 4.5 mg/kg. […]
# as §2
# (§4) For cell counting and quantitation NeuN+ cells were examined in the ipsilateral cortex, DG, CA1, and CA3 regions of the ipsilateral hippocampus. […] The number of BrdU+ cells (red-fluorophore) and NeuN (green-fluorophore)/BrdU-colabeled cells (yellow after merge) were counted. […] The immune-positive cells were determined and divided by the measured areas and presented as numbers per square mm. […] Tau or p-Tau immunoreactive areas including cortex, dentate gyrus, CA3 and CA1 regions of the ipsilateral hemisphere were imaged and quantified by Image J software (NIH).
# [4] = system: total Tau; assay: Total Tau immunostaining 35 days post-TBI; details: 4.5 mg/kg IN twice daily, cortex, DG, CA3, CA1 of ipsilateral hemisphere
# Source text: as §1, §3, §2, §4
smiles,measurement,setting,value
"COc1ccc2c3c1O[C@H]1C[C@@H](OC(=O)c4ccccc4)C=C[C@@]31CCN(C)C2 [ALPHA-1062, (4aS,6R,8aS)-5,6,9,10,11,12-hexahydro-3-methoxy-11-methyl-4aH-[1]benzofuro[3a,3,2-ef][2]benzazepin-6-ol benzoate]",overt toxicity,"[1]; 35 days, compared to vehicle animals",did not show overt toxicity
same,body weight compared to vehicle treated or untreated animals,"[1]; each time point D0-D35, P>0.05",no significant alterations in body weight
same,"body weight compared to day zero (D0), days 29-35",[1]; within group,significant body weight gain
same,"body weight compared to day zero (D0), days 1-7","[1]; within group, p<0.05",significant body weight loss
same,NeuN and BrdU double positive granule neurons compared to both vehicle-treated and sham surgery animals,[2],significantly higher (p<0.05) numbers
same,levels of p-Tau compared to vehicle controls,[3],significantly reduced levels of p-Tau
same,total Tau protein,[4],does not alter total Tau protein
